Where two headings read alike, the source gives them in different places.
How the values were obtained:
Format in all cases: cell-based
[1] = MTT cell viability assay, PH5CH cells, 72 h; details: human, immortalized normal hepatocytes PH5CH, 0.016-50.0 μM tested
Excerpt: (§1) Huh-7 cells and derived from hepatocellular carcinoma cells, and were donated by Dr. Xuanyong Lu, (Drexel University College of Medicine, Doylestown, Pa.). THLE-2 were purchased from American Type Culture Collection (Manassas, Va.). PH5CH were donated by Dr. Masayuki Noguchi (University of Tsukuba, Ibaraki, Japan). THLE-2 and PH5CH have been immortalized through stable transfection of the SV40 large T antigen in normal hepatocytes, and are thus cell lines that are representative of normal hepatocytes rather than HCC cells. THLE2 have been confirmed to not form tumors in athymic mice. All cell lines were cultured and maintained in 5% CO2 at 37° C. Huh-7 were maintained in the culture media DMEM/F12 (Dulbecco's Modified Eagle Medium) with 10% Fetal bovine serum (FBS), 100 μg/mL penicillin, 100 units/mL streptomycin, and 50 μg/mL normocin. THLE-2 and PH5CH were maintained in the culture media Brochial Epithelial Growth Media (BEGM) with 10% FBS, 100 μg/mL penicillin, 100 units/mL streptomycin, with the following additives form the prepackaged kit: Bovine pituitary extract (BPE), insulin, hydrocortisone, retinoic acid, transferrin, triiodothyronine, supplemented with 5 ng/ml human epidermal growth factor and 70 ng/ml phosphoethanolamine (Lonza Walkersville Inc., Walkersville, Md.).
(§2) Huh7 cells were plated on 96-well plates at 2.0×10^4 cells per well to permit grow in the presence of compounds of the disclosure. Compounds of the disclosure were prediluted and transferred to cell plates by automated liquid handling. Cells were incubated with compounds of the disclosure for 72 hours, after which culture growth and viability were assessed by addition of 50 μg/mL 3-(4,5-Dimethyl-2-thiazolyl)-2,5-diphenyl-2H-tetrazolium bromide (MTT) incubation for 4 hours at 37° C. Solubilization buffer (0.01M HCl, 10% SDS) was added followed by incubation at 37° C. overnight. Absorbance was measured at 570 nm (reference 630 nm). Compound of the disclosure were tested in Huh7, THLE-2 and PH5CH, over eight-point dilutions in half-log steps, testing 50.0, 16.6, 5.0, 1.66, 0.5, 0.166, 0.05, and 0.016 μM in 0.5% DMSO, with each concentration in duplicate wells. […] Each compound was tested from 2 to 7 times in separate assay trials.
(§3) Selectivity of toxicity in HCC-derived cells over normal liver-derived cells is important for the purposes of developing a therapy that specifically targets the cancer with low toxicity for […]. The Selective Index (SI) is the ratio of CC50 in normal cells (THLE2 or PH5CH) over the CC50 in the liver cancer derived cells; thus, the higher the number, the lower the potential toxicity at an efficacious dose.

[2] = MTT cell viability assay, THLE2 cells, 72 h; details: human, immortalized normal hepatocytes THLE2, 72 hours, 0.016-50.0 μM tested
Excerpt: as §1, with “THLE2 have been confirmed to not form tumors in athymic mice.” left out
as §2, §3

Huh7 cells = assay: MTT cell viability assay, Huh7 cells, 72 h; details: read-out: Huh7 CC50
Excerpt: as §1, §2

PH5CH cells = assay: MTT cell viability assay, PH5CH cells, 72 h; details: immortalized normal hepatocytes PH5CH, 0.016-50.0 μM tested
Excerpt: as §1, §2, §3

THLE2 cells = assay: MTT cell viability assay, THLE2 cells, 72 h; details: immortalized normal hepatocytes THLE2, 72 hours, 0.016-50.0 μM tested
Excerpt: as §1, with “THLE2 have been confirmed to not form tumors in athymic mice.” left out
as §2, §3

[3] = Homo sapiens, Huh-7, hepatocellular carcinoma derived Huh7 cells, 72 hours, MTT, 0.016-50.0 μM tested

SMILES	CC50 at 72 h [1] [µM]	CC50 at 72 h [2] [µM]	CC50 (Huh7 cells; [3]) [µM]	CC50 (PH5CH cells) [µM]	CC50 (THLE2 cells) [µM]	CC50 (Huh7 cells; hepatocellular carcinoma derived Huh7 cells, 72 hours, MTT, 0.016-50.0 μM tested) [µM]	CC50 (Huh7 cells; Homo sapiens, Huh-7, 72 h) [µM]
CCOC(=O)c1sc(Nc2ncccn2)nc1-c1cc(C)ccn1 [Entry 35]	39.2	37.2	4.72				
c1ccc(-c2csc(Nc3ccncn3)n2)nc1 [Entry 12]		4.47	3.05				
c1cnc(Nc2nc(-c3cccnc3)cs2)nc1 [Entry 4]		8.66	6.3				
c1cnc(Nc2nc(-c3ccncc3)cs2)nc1 [Entry 5]		48.5	14.2				
c1ccc(Nc2nc(-c3ccccc3)cs2)cc1 [Entry 7]		21.1	10.3				
O=C(NCc1ccccc1)c1sc(Nc2ncccn2)nc1-c1ccccn1 [Entry 37]	31.5	≥ 50	17.7				
N#Cc1sc(Nc2ncccn2)nc1-c1ccccn1 [Entry 29]				≥ 50	≥ 50	≤ 0.016	
CN(c1ncccn1)c1nc(-c2ccccn2)cs1 [Entry 15]	49.7	49.1	5.32				
FC(F)(F)c1ccnc(Nc2nc(-c3ccccn3)cs2)n1 [Entry 34]	≥ 50	37.8	26.6				
CC(=O)OCc1sc(Nc2ncccn2)nc1-c1ccccn1 [Entry 42]	≥ 50	≥ 50	39.3				
Cc1ccnc(Nc2nc(-c3ccccn3)cs2)n1 [Entry 30]	≥ 50	≥ 50	≥ 50				
Clc1cnc(Nc2nc(-c3ccccn3)cs2)nc1 [Entry 13]		≥ 50	35				
c1ccc(-c2nc(Nc3ncccn3)sc2C2CCCCC2)nc1 [Entry 33]	≥ 50	3.54	≥ 50				
Cc1cnc(-c2csc(Nc3ncccn3)n2)c(C)c1 [Entry 27]	47.6	2.23	2.74				
c1ccc(CN(c2ncccn2)c2nc(-c3ccccn3)cs2)cc1 [Entry 18]	46.9	49.8	≥ 50				
CN(Cc1cnc2nc(N)nc(N)c2n1)c1ccc(C(=O)NC(CCC(=O)NCCOCCOCCOCCOCCOCCNC(=O)c2sc(Nc3ncccn3)nc2-c2ccccn2)C(=O)OC(C)(C)C)cc1 (stereo not drawn) [Entry 40]	≥ 50	≥ 50	34.8				
COC(=O)c1sc(Nc2ncccn2)nc1-c1ccccn1 [Entry 38]	38.6	29.4	1.25				
NC(=O)c1sc(Nc2ncccn2)nc1-c1ccccn1 [Entry 41]	≥ 50	26.6	≥ 50				
c1cnc(Nc2nc(-c3ccc4ccccc4n3)cs2)nc1 [Entry 32]	≥ 50	8.02	≥ 50				
Cc1ccc2nc(Nc3nc(-c4ccccn4)cs3)sc2c1 [Entry 23]	3.97	3.96	4.92				
c1ccc(-c2csc(Nc3cnccn3)n2)nc1 [Entry 11]		0.539	5				
CC(C)(C)OC(=O)c1sc(N(c2ncccn2)C(C)(C)C)nc1-c1ccccn1 [Entry 44]	≥ 50	≥ 50					20.5
Cc1c(Cl)cccc1Nc1nc(-c2ccccn2)cs1 [Entry 46]			3.5				

SMILES	CC50 at 72 h [1] [µM]	CC50 at 72 h [2] [µM]	CC50 (Huh7 cells; [3]) [µM]	CC50 (PH5CH cells) [µM]	CC50 (THLE2 cells) [µM]	CC50 (Huh7 cells; hepatocellular carcinoma derived Huh7 cells, 72 hours, MTT, 0.016-50.0 μM tested) [µM]	CC50 (Huh7 cells; Homo sapiens, Huh-7, 72 h) [µM]
CCCCCc1sc(Nc2ncccn2)nc1-c1ccccn1 [Entry 25]	≥ 50	≥ 50	25.9				
CNC(=O)c1sc(Nc2ncccn2)nc1-c1ccccn1 [Entry 39]	2.89	10.3	13				
CCOC(=O)c1sc(Nc2nccc(C)n2)nc1-c1ccccn1 [Entry 31]	≥ 50	≥ 50	≤ 0.016				
CCOC(=O)c1sc(Nc2ncccn2)nc1-c1ccccn1 [Entry 19]	44	38.7	0.362				
CCOC(=O)c1sc(Nc2ncccn2)nc1-c1cccc(C)n1 [Entry 36]	≥ 50	≥ 50	≥ 50				
c1ccc(-c2csc(Nc3ncccn3)n2)nc1 [Entry 1]	≥ 50	40	1.39				
Oc1cccc(-c2csc(Nc3ncccn3)n2)n1 [Entry 28]	≥ 50	≥ 50	46.2				
Brc1cccc(-c2csc(Nc3ncccn3)n2)n1 [Entry 10]		9.75	7.82				
OCc1sc(Nc2ncccn2)nc1-c1ccccn1 [Entry 20]	46.9	31.1	11.3				
CC(C)c1sc(Nc2ncccn2)nc1-c1ccccn1 [Entry 24]	≥ 50	≥ 50					11.3
Brc1sc(Nc2ncccn2)nc1-c1ccccn1 [Entry 9]		29.9	2.53				
N#Cc1sc(Nc2ncccn2)nc1-c1ccccn1 [Entry 47]	≥ 50	≥ 50	≤ 0.016				
Cc1sc(Nc2ncccn2)nc1-c1ccccn1 [Entry 22]	42	42.9	5.92				
OCCN(c1ncccn1)c1nc(-c2ccccn2)cs1 [Entry 17]	≥ 50	≥ 50	48.9				
Cc1ccnc(-c2csc(Nc3ncccn3)n2)c1 [Entry 8]	34	14	0.563				
CC(C)N(c1ncccn1)c1nc(-c2ccccn2)cs1 [Entry 16]	≥ 50	≥ 50					25.7
c1ccc(-c2csc(Nc3ncccn3)n2)cc1 [Entry 3]		9.16	6.43				
CCCC(=O)OCc1sc(Nc2ncccn2)nc1-c1ccccn1 [Entry 43]	≥ 50	≥ 50	11				
Oc1cccc(Nc2nc(-c3ccccc3)cs2)c1 [Entry 45]		≥ 50	8				
Brc1cnc(Nc2nc(-c3ccccn3)cs2)nc1 [Entry 14]		41	31.8				
CCc1sc(Nc2ncccn2)nc1-c1ccccn1 [Entry 21]	44.1	24.7	15.4				
c1ccc(Nc2nc(-c3ccccn3)cs2)cc1 [Entry 6]			6.53				

— US10087173B2, “Substituted aminothiazoles as inhibitors of cancers, including hepatocellular carcinoma, and as inhibitors of hepatitis virus replication” (BARUCH S. BLUMBERG INSTITUTE, priority 2011, dated 2018)
